pIC50: −log10 of the molar value. Several values for one entry are separate records, joined by “and”; a condition that tells them apart may be missing. Equal values may be shown once. Read-outs that look alike come from different tables or passages of the source.
Key:
[1] = tested on: HIV transcripts (TAR, LLTR, Pol, PolyA, TatRev); assay: Cell-associated HIV transcripts (RT-ddPCR) 6 days after anti-CD3/CD28 activation of PBMCs from ART-suppressed PWH; assay type: cell-based; conditions: for Pol / PolyA / TAR / TatRev: DMSO αCD3/28 = 100, Fig 4A; for LLTR/TAR / PolyA/LLTR / TatRev/PolyA: DMSO+CD3/28 = 1, Fig 4B, C and D
Description: Next, we evaluated the ability of the candidate LPAs to sustain the inhibitory effects during a prolonged ex vivo culture. To this end, PBMCs were cultured in the presence of individual drugs in DMSO or in DMSO alone as control, activated (anti-CD3/CD28), and harvested after 6 days. […] However, we decided to test the drug on day 6 because extra cells were available from some study participants.
Each drug was tested in PBMCs from at least 6 ART-suppressed study participants (except for KRIBB11, n = 5). PBMCs were aliquoted into wells at 6 × 10^6 cells/well. After activation, the cells were cultured with antiretrovirals in the presence of individual drugs in DMSO or DMSO alone as control. All conditions were tested in the presence of CD3/28 T cell–activating beads, except for the unactivated DMSO condition. After 6 days, total cellular RNA was extracted, and the progression through different stages of HIV transcription was quantified by measuring the levels of initiated (TAR), 5′ elongated (LLTR), midtranscribed/unspliced (Pol), completed (PolyA), and multiply spliced (TatRev) HIV transcripts. (A) The levels of all HIV transcripts were normalized to 1 μg of total cellular RNA and expressed as a percentage of the activated DMSO control (% of activated DMSO). Medians are shown as well as the individual values per study participant in different colors. (B–D) The effect of each drug on HIV transcriptional progression after activation was analyzed by the ratio of one HIV transcript to another. Ratios are independent of HIV infection frequency or normalization to cell numbers. Shown are the proportion of (B) all HIV transcripts that are elongated (LLTR/TAR), (C) elongated HIV transcripts that are completed (PolyA/LLTR), and (D) completed transcripts that are multiply spliced (TatRev/PolyA). Medians and IQR are presented, along with the individual values per study participant in different colors. P values were calculated using Wilcoxon’s signed-rank test: *P < 0.05.
PBMCs were isolated from fresh venous blood from 16 ART-suppressed HIV-infected study participants using Ficoll density gradient centrifugation. The cells were seeded at 6 × 10^6 cells/well and cultured with antiretrovirals (nevirapine and indinavir) to prevent new infection. On the next day, PBMCs were activated with anti-CD3/CD28–coated beads (Invitrogen) in the presence of 20 U/mL IL-2 and individual drugs in DMSO or DMSO alone as a control. Since we were limited in the PBMC yield per study participant, different study participants were used for different experiments (such as the initial screen, dose response, different time points, and studies in activated vs. unstimulated cells). In addition, the yields of PBMCs were sometimes insufficient to test all drugs for a given question or experiment.
For quantification of cell-associated HIV transcripts, PBMCs were harvested either after 24 hours or after 6 days. The cell viabilities were measured by trypan blue staining; then the cells were pelleted by centrifuging at 300g for 6 minutes and stored at –80°C. For quantification of virion-associated HIV RNA, cell culture supernatant was collected from 6 × 10^6 PBMCs that were treated and activated for 6 days as described above. Residual cells and cellular debris were subsequently removed from the supernatant by differential centrifugation (300g for 6 minutes, then 20,000g for 10 minutes), and the supernatant was stored at –80°C.
Total cellular DNA and RNA were extracted in parallel using Trireagent (Molecular Research Center) according to the manufacturer’s instructions, except for study participants 2147 and 2461 (Figure 4), for whom DNA and RNA were extracted using the QIAGEN AllPrep DNA/RNA/miRNA Universal Kit with on-column DNase I treatment of the RNA and the manufacturer’s modification to enhance recovery of short transcripts.

[2] = tested on: HIV transcripts (PolyA, TatRev); assay: Dose-response curves of LPAs: polyadenylated and multiply spliced HIV transcripts 24 hours after activation; assay type: cell-based; conditions: for MS Tat-Rev (dose-response) / PolyA (dose-response): 24 hours, 1 participant per drug; for pIC50: 24 h, PBMCs from 1 participant per drug
Description: The IC50 was determined based on the reduction in completed (PolyA) as well as multiply spliced (TatRev) HIV transcripts relative to activated DMSO (Table 1).
Figure 2 Dose-response curves of LPAs. Dose-response curves for each drug were generated in PBMCs from 1 ART-suppressed study participant per drug. PBMCs were aliquoted into wells at 6 × 10^6 cells/well, activated, and cultured with antiretrovirals in the presence of DMSO alone (no drug) or varying concentrations of individual drugs in DMSO. After 24 hours, the levels of polyadenylated and multiply spliced HIV transcripts were quantified by RT-ddPCR, normalized to 1 μg of total cellular RNA, and expressed as a percentage of the activated DMSO control (% of activated DMSO).

[3] = Human immunodeficiency virus 1, PBMC, reduction in PolyA HIV transcripts relative to activated DMSO, read-out: Completed (PolyA) IC50
[4] = Human immunodeficiency virus 1, PBMC, reduction in TatRev HIV transcripts relative to activated DMSO, read-out: Multiply spliced (TatRev) IC50

pladienolide B
LLTR HIV transcripts (DMSO αCD3/28 = 100) ([1]; 10nM, 6 days after αCD3/28 activation, each column one participant): 48.15 and 112.06 and 64.44 and 97.37 and 80.45 and 82.86 | Pol ([1]; participant 2027): 56.14 | PolyA ([1]; participant 2027): 45.13 | TAR ([1]; participant 2027): 270.3 | TatRev ([1]; participant 2027): 0 | LLTR/TAR ([1]; participant 2027): 0.3065 | PolyA/LLTR ([1]; participant 2027): 0.5447 | TatRev/PolyA ([1]; participant 2027): 0 | Pol ([1]; participant 2147a): 74.51 | PolyA ([1]; participant 2147a): 38.34 | TAR ([1]; participant 2147a): 177.4 | TatRev ([1]; participant 2147a): 22.95 | LLTR/TAR ([1]; participant 2147a): 0.2714 | PolyA/LLTR ([1]; participant 2147a): 0.7963 | TatRev/PolyA ([1]; participant 2147a): 0.342 | Pol ([1]; participant 2161): 44.19 | PolyA ([1]; participant 2161): 152.38 | TAR ([1]; participant 2161): 52.78 | TatRev ([1]; participant 2161): 381.82 | LLTR/TAR ([1]; participant 2161): 1.5241 | PolyA/LLTR ([1]; participant 2161): 1.89 | TatRev/PolyA ([1]; participant 2161): 2.506 | PolyA ([1]; participant 2461): 53.85 | TAR ([1]; participant 2461): 91.45 | LLTR/TAR ([1]; participant 2461): 1.065 | PolyA/LLTR ([1]; participant 2461): 0.553 | Pol ([1]; participant 2747): 21.03 | PolyA ([1]; participant 2747): 65.33 | TAR ([1]; participant 2747): 95.91 | TatRev ([1]; participant 2747): 0 | TatRev/PolyA ([1]; participant 2747): 0 | Pol ([1]; participant 2750): 212.24 | PolyA ([1]; participant 2750): 74.85 | TAR ([1]; participant 2750): 108.21 | TatRev ([1]; participant 2750): 155 | LLTR/TAR ([1]; participant 2750): 1.036 | PolyA/LLTR ([1]; participant 2750): 0.668 | TatRev/PolyA ([1]; participant 2750): 2.0707 | MS Tat-Rev (dose-response) ([2]; dose 0.1 nM): 34.26 % of activated DMSO | PolyA (dose-response) ([2]; dose 0.1 nM): 47.95 % of activated DMSO | MS Tat-Rev (dose-response) ([2]; dose 1 nM): 17.07 % of activated DMSO | PolyA (dose-response) ([2]; dose 1 nM): 43.55 % of activated DMSO | MS Tat-Rev (dose-response) ([2]; dose 10 nM): 0.76 % of activated DMSO | PolyA (dose-response) ([2]; dose 10 nM): 4 % of activated DMSO | pIC50 ([2]; reduction in PolyA HIV transcripts relative to activated DMSO, read-out: Completed (PolyA) IC50): 9.74 | pIC50 ([2]; reduction in TatRev HIV transcripts relative to activated DMSO, read-out: Multiply spliced (TatRev) IC50): 10.22

O=c1c(O)c(-c2ccc(O)c(O)c2)oc2cc(O)cc(O)c12 [quercetin]
LLTR/TAR ([1]; participant 150b): 0.7842 | PolyA/LLTR ([1]; participant 150b): 1.289 | TatRev/PolyA ([1]; participant 150b): 0.75 | LLTR/TAR ([1]; participant 2027): 0.9301 | PolyA/LLTR ([1]; participant 2027): 0.981 | TatRev/PolyA ([1]; participant 2027): 0.6894 | LLTR/TAR ([1]; participant 2147a): 0.08494 | PolyA/LLTR ([1]; participant 2147a): 0.5196 | TatRev/PolyA ([1]; participant 2147a): 0.8518 | PolyA/LLTR ([1]; participant 2161): 0.79 | TatRev/PolyA ([1]; participant 2161): 0.8634 | LLTR/TAR ([1]; participant 2256): 0.9386 | PolyA/LLTR ([1]; participant 2256): 0.8949 | LLTR/TAR ([1]; participant 2461): 1.332 | TatRev/PolyA ([1]; participant 2747): 0 | pIC50 [2, 3]: 5.85 | pIC50 [2, 4]: 5.95 | MS Tat-Rev (dose-response) ([2]; dose 5 µM): 15.52 % of activated DMSO | PolyA (dose-response) ([2]; dose 5 µM): 17.57 % of activated DMSO | MS Tat-Rev (dose-response) ([2]; dose 10 µM): 14.99 % of activated DMSO | PolyA (dose-response) ([2]; dose 10 µM): 19.46 % of activated DMSO

N#CC[C@H](C1CCCC1)n1cc(-c2ncnc3[nH]ccc23)cn1 [ruxolitinib]
LLTR/TAR ([1]; participant 150b): 0.6749 | PolyA/LLTR ([1]; participant 150b): 0.4135 | TatRev/PolyA ([1]; participant 150b): 0.45 | LLTR/TAR ([1]; participant 2027): 0.1463 | PolyA/LLTR ([1]; participant 2027): 0.4929 | TatRev/PolyA ([1]; participant 2027): 0 | LLTR/TAR ([1]; participant 2147a): 0.473 | PolyA/LLTR ([1]; participant 2147a): 0.2896 | TatRev/PolyA ([1]; participant 2147a): 0 | LLTR/TAR ([1]; participant 2161): 2.396 | PolyA/LLTR ([1]; participant 2161): 0.46 | TatRev/PolyA ([1]; participant 2161): 0 | LLTR/TAR ([1]; participant 2461): 3.402 | PolyA/LLTR ([1]; participant 2461): 0 | LLTR/TAR ([1]; participant 2747): 0.4032 | PolyA/LLTR ([1]; participant 2747): 1.05 | TatRev/PolyA ([1]; participant 2747): 0 | LLTR/TAR ([1]; participant 2750): 1.117 | PolyA/LLTR ([1]; participant 2750): 1.35 | TatRev/PolyA ([1]; participant 2750): 1.555 | pIC50 [2, 3]: 6.57 | pIC50 [2, 4]: 6.59 | MS Tat-Rev (dose-response) ([2]; dose 0.4 µM): 41.24 % of activated DMSO | PolyA (dose-response) ([2]; dose 0.4 µM): 33.83 % of activated DMSO | MS Tat-Rev (dose-response) ([2]; dose 1 µM): 15.99 % of activated DMSO | PolyA (dose-response) ([2]; dose 1 µM): 29.83 % of activated DMSO | MS Tat-Rev (dose-response) ([2]; dose 4 µM): 8.19 % of activated DMSO | PolyA (dose-response) ([2]; dose 4 µM): 7.04 % of activated DMSO | MS Tat-Rev (dose-response) ([2]; dose 10 µM): 4.34 % of activated DMSO | PolyA (dose-response) ([2]; dose 10 µM): 4.66 % of activated DMSO
